Measurements published in a melting point compilation (Tetko et al.; mined from patent text by program, amines drawn as free bases though some values may be those of a salt).

melting point	Compound
121 to 123 °C	O=c1n(CC(O)c2ccccc2)c2c(Br)c(Br)c(Br)c(Br)c2n1CC(O)c1ccccc1 (stereo not given)
169 to 172 °C	COC(=O)[C@H](CSCc1ccccc1)NC(=O)Nc1n[nH]c(=S)s1
168 to 170 °C	O=C1CC2CS(=O)(=O)c3ccccc3C2=NN1c1ccc(Cl)cc1 (stereo not given)
280 to 281 °C	c1ccc2c(c1)c1ccccc1n2-c1ccc(-c2ccc(-n3c4ccccc4c4ccccc43)cc2)cc1
179 to 180 °C	CCn1ncc2c(NCc3ccc(OC)cc3)c3ccccc3nc21
79 to 80 °C	Cc1oc(-c2ccccc2)nc1COc1cccc(CCl)c1
169 °C	Cc1nc2ccc(N3CC4CNCC4C3)nn2c1-c1ccnc(CN)c1 (stereo not given)
176 °C	Cn1nc(-c2ccc(Cl)cc2)c2c1-c1ccccc1C2
94 to 94.5 °C	O=C(O)CC1CCCc2c1n(Cc1ccc(Cl)cc1)c1c(F)cccc21 (stereo not given)
193 to 194 °C	Clc1ccc(OCc2ccnc3ncnn23)cc1
177 to 178 °C	CCN(Cc1cc(Cl)ccc1OCC1CC1)c1ccc(C(N)=O)nn1
121 to 123 °C	Cc1cc(-c2cccc(NC(=O)C3CCC3)c2)n2ncc(C(=O)c3cccs3)c2n1
313 to 319 °C	CC1CC(=O)NN=C1c1ccc(Nc2nc(=O)c3ccccc3[nH]2)cc1 (stereo not given)
117 to 119 °C	COc1ccnc(CCc2nc3cc(-c4ccc(N)cc4)cnc3[nH]2)c1
106 °C	CSc1ccc(C2=C(c3cccc(F)c3)C(=O)C(C)(C)O2)cc1
130 °C	Cn1nc(C(F)(F)F)cc1Oc1cc(Oc2cc(C(F)(F)F)nn2C)nc(Oc2cc(C(F)(F)F)nn2C)c1
109 °C	CCCC1CCC(O)CC1 (stereo not given)
145 to 147 °C	CC(=O)OC1CCCCC1n1cnc2cc(Cl)c(Cl)cc21 (stereo not given)
150 to 151 °C	CCCC1=C(C(=O)OCC)C(c2ccccc2Cl)c2cn(C)nc2N1 (stereo not given)
110 to 111 °C	CN(C(=O)c1ccc2nonc2c1)C1CCCC1
174 to 177 °C	COc1cc2c(cc1OC)C1(CCN(CCc3ccc([N+](=O)[O-])cc3)CC1)N(Cc1ccc([N+](=O)[O-])cc1)CC2=O
82 to 85 °C	C[C@H](NP(=O)(Cc1ccccc1)Cc1ccccc1)C(=O)N1CCC[C@H]1C(=O)N[C@H](C)C(=O)OCc1ccccc1
167 to 168 °C	CN(CCOc1ccc(CC2SC(=O)NC2=O)cc1)c1nc2ccccc2s1 (stereo not given)

melting point	Compound
71 to 73 °C	COc1ccccc1N1CCN(C2CCN(c3noc4ccccc34)CC2)CC1
173 to 174 °C	CCc1cc2c(s1)S(=O)CCc1cc(=O)n(-c3ccc(Cl)cc3)nc1-2 (stereo not given)
112 to 114 °C	OCc1ccc(-c2ncn(-c3ccc(OC(F)(F)F)cc3)n2)cc1
223 to 224 °C	O=S(=O)(NCC(F)(F)F)c1ccc(Nc2nc(OCC3CCCCC3)c3nc[nH]c3n2)cc1
270 to 273 °C	O=C(O)C1=Cc2cc(OCc3ccc(F)cc3)ccc2S(=O)(=O)CC1
245 °C	CNc1ncnc2ccc(I)cc12
232 °C	CC1=C(S(C)(=O)=O)C(c2ccc(Cl)c([N+](=O)[O-])c2)C2=C(CCC2=O)N1 (stereo not given)
120 °C	CCCN1CCCC(c2ccc(OC)c3c2CC(=O)N3)C1 (stereo not given)
155 to 156 °C	COc1ccc([N+](=O)[O-])c2c1oc1ccccc12
115 to 118 °C	COc1cc(OC)nc(Oc2ccnc3c(Cl)cccc23)n1
65.5 to 67.5 °C	C[C@@H]1COC2(CCCC2)N1C(=O)c1ccccc1
192 °C	CCCCN1CC(=O)N2[C@@H](c3ccc(N)cc3)c3[nH]c4ccccc4c3C[C@@H]2C1=O (relative stereo)
213 to 214 °C	CNC(=O)Cc1cccc2c(=O)cc(C3=CCCCC3)oc12
118 to 120 °C	CN1CCC(c2c[nH]c3ccc(NC(=O)c4ccc(Cl)s4)nc23)CC1
126 to 128 °C	CC(c1ccccc1N1CCCCC1)C(C(N)=O)c1ccc(C(=O)OCc2ccccc2)cc1 (stereo not given)
146 to 149 °C	CCCCCCC=CCC1CC(=O)N(c2cc(Cc3n[nH]c(=O)c4ccccc34)ccc2F)C1=O (stereo not given)
138 to 139 °C	Clc1ccnc(-n2ccnc2)n1
163 to 164 °C	Cc1ccc(N(c2ccccc2)c2ccc(-c3ccc(N(c4ccccc4)c4ccc(C)cc4)cc3)cc2)cc1
85 to 86 °C	CCC1(CC)c2ccccc2C(CC)(CC)N1OC(COC(C)(C)C)c1ccccc1 (stereo not given)
158 to 159 °C	CN=C(NS(=O)(=O)c1ccc(Cl)c(Cl)c1)SC
102 to 103 °C	COC(=O)c1cc(Br)c(C#N)s1
16 to 18 °C	CCOC(=O)c1cccc(OCCCCCCCc2cc(C)no2)c1
182 to 184 °C	Cn1nc(OC(c2ccccc2)c2ccccc2)c(=O)nc1Cl

melting point	Compound
118 to 120 °C	Cc1cc(Br)c([N+](=O)[O-])c(Br)n1
196 to 197 °C	CC1(C)Oc2ccc(C#N)cc2[C@@H](NC(=O)CCl)[C@@H]1O (relative stereo)
150 to 151 °C	Cc1ccccc1C(CCC(=O)O)Oc1cc(OCc2ccsc2)cc(F)c1C#N (racemic)
150 °C	O=C1Oc2ccccc2C1(Cc1ccccc1)Cn1cncn1 (stereo not given)
119 to 121 °C	CC(=O)NCc1ccc2c(c1)N(C1CCN(CCCCc3ccc(F)cc3)CC1)CC2
120 to 121 °C	CCOc1nn(-c2ccc(C(F)(F)F)cn2)cc1CCCOc1ccc(CCC(=O)O)c(OC)c1
128 °C	CC(=O)OC1CSC(Oc2cncc(S(=O)(=O)c3ccc(F)cc3)c2)C(OC(C)=O)C1OC(C)=O (stereo not given)
194 to 196 °C	Cc1ccc(C(O)(c2ccc(C)cc2)[C@H](C)n2ccnc2)cc1
103 to 104 °C	Clc1ccc(Cl)n2nc(SCc3ccccc3)nc12
258 to 261 °C	CN(C)C=Nc1ncc(S(=O)(=O)NC(C)(C)C)c(O)n1
115 to 116 °C	CCCc1c(OCCCSc2ccc(C(=O)NCC(=O)OCC)cc2)ccc(C(C)=O)c1O
> 260 °C	CCOC(=O)c1c(SC)nc(C2CC2)n1Cc1ccc(-c2ccccc2S(=O)(=O)NC#N)cc1
55 °C	CCCCc1oc2ccc([N+](=O)[O-])cc2c1C(=O)c1ccc(OCCCCCBr)cc1
195 to 197 °C	CC(C)Oc1cc(-n2c(=O)cc(C(F)(F)F)[nH]c2=O)c(F)cc1Cl
125 °C	CC(C)(C)c1cccc(S(=O)(=O)Nc2ccc(C(F)(F)F)nc2I)c1
152 to 153 °C	CCOC(=O)c1cccc2c1N=C(c1ccccc1Cl)CC2=O
161 to 167 °C	Cc1c(-c2ccc(OC3CCCC3)cc2)[nH]c2ccc(OCc3ccccc3)cc12
80 to 82 °C	CCOC(=O)C=CN1C(C)(C)CC(OC(=O)CCl)CC1(C)C
187 to 188 °C	O=C(O)c1ccc(F)cc1NC(=O)c1ccccc1C(=O)O
180 to 181 °C	CC(CNC(=O)c1ccc(Oc2ccc(F)cc2)o1)N(O)C(N)=O (stereo not given)
212 to 214 °C	NC(=O)CN1C(=O)COc2cc(F)ccc21

Compound	melting point
CC(=O)NNC1=Nc2sccc2C(c2ccccc2)=NC1	194 to 196 °C
O=C(O)c1cn2c3c(c(N4CCNCC4)ccc3c1=O)CCC2	267 to 268 °C
O=C1C2CSCC1CN(Cc1ccccc1)C2	91 to 92 °C
